From publication PMC11177969, “Comprehensive Analyses of the Effects of the Small-Molecule Inhibitor of the UHM Domain in the Splicing Factor U2AF1 in Leukemia Cells” (Research Square, 2024)
Where two headings read alike, the source gives them in different places.

Experiments:
[1] = target: T1, RBM39-UHM (Homo sapiens, UniProt Q14498); assay: HTRF assay; assay type: binding; conditions: Fig. 2C; SD of 2 independent experiments in parentheses
T1 sequence (Q14498 445-508 limits assumed): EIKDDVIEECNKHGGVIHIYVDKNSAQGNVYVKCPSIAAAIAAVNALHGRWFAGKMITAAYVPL
From the text: (§1) To determine the selectivity of SF1–8 against other homologous UHM domains, we measured the IC50 values of SF1–8 to RBM39-UHM, SPF45-UHM and PUF60-UHM using the HTRF assay.[42] […] In the chemical synthesis (Scheme S1), methylation on the pyrazole group in SF1–8 can occur at the N8 or N9 position (Fig.2C). Although the NMR spectra can be used to infer the methyl group position on the pyrazole, we determined the crystal structure of a SF1–8 precursor to clearly confirm the methyl group is at N9 in SF1–8 (Fig.2C). To further probe the interaction of SF1–8 with U2AF1-UHM, we synthesized SF1–8 analogs and developed the structure activity relationship (SAR) (Fig.2C). […] A longer alkyl group was tolerated at the N8 position but not at the N9 position. […] The crystal structure of a 7c precursor experimentally determined from SCXRD again confirmed the location of the propyl group (Fig. 2C).

[2] = target: T2, SPF45-UHM (Homo sapiens, UniProt Q96I25); assay: HTRF assay; assay type: binding; conditions: Fig. 2C; SD of 2 independent experiments in parentheses
T2 sequence (Q96I25 306-385 limits assumed): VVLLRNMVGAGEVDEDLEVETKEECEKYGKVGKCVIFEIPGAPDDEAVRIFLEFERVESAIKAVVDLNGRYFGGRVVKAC
From the text: as §1

[3] = target: T3, PUF60-UHM (Homo sapiens, UniProt Q9UHX1); assay: HTRF assay; assay type: binding; conditions: Fig. 2C
T3 sequence (Q9UHX1 462-549 limits assumed): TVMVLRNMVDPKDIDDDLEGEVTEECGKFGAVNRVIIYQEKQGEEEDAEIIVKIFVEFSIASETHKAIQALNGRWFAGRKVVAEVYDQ
From the text: as §1

[4] = target: T4, U2AF1-UHM (Homo sapiens, UniProt Q01081); assay: HTRF assay, inhibition of binding between U2AF1-UHM and U2AF2-ULM
T4 construct: we screened the CCG fragment library from University of Michigan against the U2AF1-UHM domain using the Thermal Shift Assay (TSA)
T4 sequence (Q01081 65-147 limits assumed): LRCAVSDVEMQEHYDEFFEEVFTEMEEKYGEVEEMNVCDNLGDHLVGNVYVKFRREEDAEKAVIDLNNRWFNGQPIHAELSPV
From the text: TSA data provided no information of the binding site in U2AF1-UHM. To identify the binding sites of both hits to U2AF1-UHM, we synthesized CCG211578 (named Hit1/SF1–8) and CCG210084 (named Hit2/9 in Fig.2C) and asked if they inhibited the binding between U2AF1-UHM and U2AF2-ULM using our previously developed HTRF assay.[42] […] The IC50 values of SF1–8 and Hit2 correlated with the ΔTm values observed in TSA. We have reported that the conserved Trp binding site in U2AF1-UHM dominated the binding affinity between U2AF2-ULM and U2AF1-UH.[42]

[5] = test system: K562-U2AF1^S34F; parameters: method as in PMID 33689684; conditions: cited from earlier work
[6] = test system: K562-U2AF1^S34F; assay: Growth inhibition / cell viability (CellTiter-Glo); assay type: cell-based
From the text: (§2) Previous studies that introduced U2AF1^S34F in lung epithelial (HBEC3kt)[43], leukemia (K562)[38],[44],[45], and iPSC[37] cell lines have validated the function of U2AF1^S34F in these engineered cell lines while mutation of Q157 is less studied. We therefore focused our study on U2AF1^S34F and examined the effects of SF1–8 on a panel of leukemia cell lines including K562, U937, HL60 with isogenic overexpression of U2AF1^wt or U2AF1^S34F, K562 with isogenic overexpression of SRSF2^wt or SRSF2^P95H, and K562 with Crispr/Cas9 edited SF3B1^wt or SF3B1^E700K (denoted as K562-U2AF1^wt, K562-U2AF1^S34F, U937-U2AF1^wt, U937-U2AF1^S34F, HL60-U2AF1^wt, HL60-U2AF1^S34F, K562-SRSF2^wt, K562-SRSF2^P95H, K562-SF3B1^wt, K562-SF3B1^E700K). […] The data obtained from the engineered leukemia cell lines prompted us to query the activity of SF1–8 in primary MDS cells.
(§3) Figure 3. Growth inhibition activities of SF1–8 in U2AF1, SF3B1, SRSF2 mutant, wild-type leukemia cell lines (A) Dose dependent growth inhibition of U2AF1^S34F, SF3B1^E700K, SRSF2^P95H mutant and isogenic wild-type cell lines by the treatment of SF1–8. (B) Titration of SF1–8 against K562-U2AF1^wt, K562-U2AF1^S34F, MV4–11, HL60 cells using the CellTiter-Glo assay. (C) Toxicity of SF1–8 in human primary MDS cells (U2AF1^S34F) and healthy bone marrow cells.

[7] = test system: K562-U2AF1^wt; assay: Growth inhibition / cell viability (CellTiter-Glo); assay type: cell-based
From the text: as §2, §3

[8] = test system: healthy control cells; assay: Toxicity in healthy control cells; assay type: cell-based, human; conditions: as much as 10 μM
From the text: as §2, §3

[9] = test system: HL-60; assay: Growth inhibition titration (CellTiter-Glo); assay type: cell-based; conditions: Homo sapiens, native cell line carrying U2AF1^wt
From the text: as §2, §3

[10] = test system: MV-4–11; assay: Growth inhibition titration (CellTiter-Glo); assay type: cell-based; conditions: Homo sapiens, MV4-11; native cell line carrying U2AF1^wt
From the text: as §2, §3

[11] = test system: bone marrow cells from an MDS specimen that harbored U2AF1^S34F; assay: Toxicity in primary MDS cells; assay type: cell-based; conditions: Homo sapiens, Bone marrow cell, U2AF1^S34F VAF 41%, read-out: viable cells
From the text: as §2, §3

[12] = test system: K562-U2AF1^S34F cells; assay: Western blots of select genes; assay type: cell-based; conditions: western blot
From the text: To understand the underlying mechanisms of the differential effects of SF1–8 on K562-U2AF1^S34F, we performed an RNA-seq experiment on K562-U2AF1^S34F cells treated with SF1–8 and control (Fig.4). […] When the 99 genes were mapped to KEGG pathways, the top six enriched pathways were protein digestion and absorption, extracellular matrix-receptor interaction, focal adhesion, PI3K-Akt signaling pathway, human papillomavirus infection, and AGE-RAGE signaling pathway (Fig.S2). To determine if the protein levels of these genes were affected by their mRNA changes, we performed the western blots of select genes. […] Because of the role U2AF1 in RNA splicing, we asked if analysis of the isoform pattern changes may provide insight to explain the different observations between RNA-seq and western blot data. In the transcript analysis, we identified low FPKM numbers of three BCL2 transcripts (Fig.S3) that explained the relatively low BCL2 protein levels in K562. A significant increase of the BCL-2b transcript was also found. […] Besides BCL2, BCLXL (encoded by BCL2L1) and MCL1 have isoforms (BCL-XS and MCL-1S) that had apoptotic functions. K562 cells expressed only the anti-apoptotic MCL1 transcript and the expression was not affected by SF1–8 (not shown). […] Another frequently studied gene involved in apoptosis regulation is survivin.[48],[49]
Figure 4. RNA-seq experiment of K562-U2AF1^S34F cells treated with SF1–8 and the western blot of select genes. […] (C) Western blots of c-CBL, ATF3, and BCL-2 in K562-U2AF1^wt, K562-U2AF1^S34F treated with SF1–8. (D) Heatmap of top 99 differentially regulated genes in K562-U2AF1^S34F treated with SF1–8.

[13] = target: T4, U2AF1-UHM; assay: Thermal Shift Assay (TSA) fragment library screening; assay type: binding; conditions: confirmatory screening in triplicate, read-out: ΔTm (melting temperature change) of U2AF1-UHM
Protocol: To develop a different targeting strategy, we assessed potential tractable binding sites in U2AF1 using computational analysis and determined that the UHM domain of U2AF1 was for identifying hits (Fig.S1).[42] To discover hits, we screened the CCG fragment library from University of Michigan against the U2AF1-UHM domain using the Thermal Shift Assay (TSA). An initial single concentration screening at 200 μM led to identify 149 compounds that gave positive shifts of the melting temperature (ΔTm) in U2AF1-UHM. These compounds were subject to a secondary confirmatory screening in triplicate at 200 μM.

[14] = test system: U937-U2AF1^wt; assay: Dose dependent growth inhibition; assay type: cell-based; conditions: Fig. 3A
From the text: as §2, §3

[15] = test system: U937-U2AF1^S34F; assay: Dose dependent growth inhibition; assay type: cell-based; conditions: Fig. 3A
From the text: as §2, §3

[16] = test system: HL60-U2AF1^S34F; assay: Dose dependent growth inhibition; assay type: cell-based; conditions: Fig. 3A
From the text: as §2, §3

[17] = test system: K562-SRSF2^wt; assay: Dose dependent growth inhibition; assay type: cell-based; conditions: Fig. 3A
From the text: as §2, §3

[18] = test system: HL60-U2AF1^wt; assay: Dose dependent growth inhibition; assay type: cell-based; conditions: Fig. 3A
From the text: as §2, §3

[19] = test system: K562-SF3B1^E700K; assay: Dose dependent growth inhibition; assay type: cell-based; conditions: Fig. 3A
From the text: as §2, §3

[20] = test system: K562-SF3B1^wt; assay: Dose dependent growth inhibition; assay type: cell-based; conditions: Fig. 3A
From the text: as §2, §3

[21] = test system: K562-SRSF2^P95H; assay: Dose dependent growth inhibition; assay type: cell-based; conditions: Fig. 3A
From the text: as §2, §3

[22] = test system: bone marrow cells of healthy control; assay: Colony formation assay; assay type: cell-based, human; conditions: 1 to 20 μM
From the text: as §2

[23] = Fig. 2C, SD of 2 independent experiments in parentheses, read-out: IC50 U2AF1
[24] = representative titration curves, Fig. 2B, read-out: IC50 against U2AF1-UHM

CCn1nc(C2(C)CCNCC2)cc1O [7b]
IC50 [1]: > 1000 µM
IC50 [2]: 958 µM
IC50 [3]: 910 µM
IC50 [4, 23]: 467 µM

CCCn1nc(C2(C)CCNCC2)cc1O [7c]
IC50 [1]: 310 µM
IC50 [2]: 62.4 µM
IC50 [3]: 541 µM
IC50 [4, 23]: 53.1 µM

CC(C)n1nc(C2(C)CCNCC2)cc1O [7d]
IC50 [1]: 791 µM
IC50 [2]: 694 µM
IC50 [3]: 1090 µM
IC50 [4, 23]: 863 µM

CCC1(c2cc(O)n(C)n2)CCNCC1 [7e]
IC50 [1]: > 1000 µM
IC50 [2]: 519 µM
IC50 [3]: > 1000 µM
IC50 [4, 23]: 383 µM

Cn1nc(O)cc1C1(C)CCNCC1 [8a]
IC50 [1]: > 1000 µM
IC50 [2]: 473 µM
IC50 [3]: 550 µM

CCn1nc(O)cc1C1(C)CCNCC1 [8b]
IC50 [1]: > 1000 µM
IC50 [2]: 799 µM
IC50 [3]: > 1000 µM
IC50 [4, 23]: 232 µM

CCCn1nc(O)cc1C1(C)CCNCC1 [8c]
IC50 [1]: 386 µM
IC50 [2]: 362 µM
IC50 [3]: 621 µM
IC50 [4, 23]: 34.1 µM

CC(C)n1nc(O)cc1C1(C)CCNCC1 [8d]
IC50 [1]: 395 µM
IC50 [2]: 354 µM
IC50 [3]: 459 µM
IC50 [4, 23]: 71.6 µM

CCC1(c2cc(O)nn2C)CCNCC1 [8e]
IC50 [1]: 335 µM
IC50 [2]: 179 µM
IC50 [3]: 592 µM
IC50 [4, 23]: 46.5 µM

CC1(C)C2CCC(CN=C(N)CSS(=O)(=O)O)C1C2 (stereo not shown) [NSC194308]
fold lower IC50 value in K562-U2AF^S34F than in K562-U2AF1^wt [5]: 2–3 fold
selectivity between K562-U2AF1^S34F and K562-U2AF1^wt [5]: 2 fold

Cn1nc(C2(C)CCNCC2)cc1O [SF1–8]
IC50 [1]: 221 µM
IC50 [2]: 748 µM
IC50 [3]: 523 µM
IC50 [4, 23]: 59.33 ± 0.02 µM
selectivity against three other UHM domains ([4]; U2AF1-UHM vs RBM39-UHM, SPF45-UHM, PUF60-UHM): 4–12 fold
IC50 [4, 24]: 59.3 µM
effect on cell viability ([6]; Fig. 3A): selectively decreased the viability
IC50 ([6]; dose titration, CellTiter-Glo): 1.98 µM
effect on cell viability ([7]; Fig. 3A): but not their isogenic wild-type cells
activity in dose titration ([7]; dose titration, CellTiter-Glo): no activity
effect on viable cells [8]: did not significantly decrease 20% of viable cells
IC50 [9]: > 100 µM
IC50 [10]: > 100 µM
viability at 10 µM [11]: 20%
ATF-3 protein level [12]: increase of ATF-3 was confirmed
BCL2 protein level [12]: decreased BCL2
c-CBL protein level [12]: no change of c-CBL
ΔTm at 200 µM [13]: 2.02 °C
effect on cell viability [14]: no activity
effect on cell viability [15]: no activity
effect on cell viability [16]: reduced cell viability
effect on cell viability [17]: no activity
effect on cell viability [18]: reduced cell viability
effect on cell viability [19]: selectively decreased the viability
effect on cell viability [20]: but not their isogenic wild-type cells
effect on cell viability [21]: no activity
toxicity in colony formation assay [22]: no significant toxicity

CC1(c2cc(O)[nH]n2)CCNCC1 [compound 9]
IC50 [1]: 686 µM
IC50 [2]: > 1000 µM
IC50 [3]: 992 µM
IC50 [4, 23]: 343 ± 62.4 µM
IC50 [4, 24]: 328 µM
ΔTm at 200 µM [13]: 1.5 °C
